From patent US10065963B2 (Incyte Corporation, priority 2015, dated 2018)
pIC50: −log10 of the molar value. Structures can show the parent of a compound that is named as a salt. Where two headings read alike, the source gives them in different places. Blank lines part the entries; values can stand above or below the compound they belong to.

Tests used:
[1] = biological target: PI3Kγ (p110γ) Recombinant Human Protein (Homo sapiens (Human), UniProt P48736); assay: PI3K-γ scintillation proximity assay; assay type: biochemical; conditions: 2 μM ATP, 20 μM PIP2
Chain of PI3Kγ (p110γ) Recombinant Human Protein (P48736 whole entry): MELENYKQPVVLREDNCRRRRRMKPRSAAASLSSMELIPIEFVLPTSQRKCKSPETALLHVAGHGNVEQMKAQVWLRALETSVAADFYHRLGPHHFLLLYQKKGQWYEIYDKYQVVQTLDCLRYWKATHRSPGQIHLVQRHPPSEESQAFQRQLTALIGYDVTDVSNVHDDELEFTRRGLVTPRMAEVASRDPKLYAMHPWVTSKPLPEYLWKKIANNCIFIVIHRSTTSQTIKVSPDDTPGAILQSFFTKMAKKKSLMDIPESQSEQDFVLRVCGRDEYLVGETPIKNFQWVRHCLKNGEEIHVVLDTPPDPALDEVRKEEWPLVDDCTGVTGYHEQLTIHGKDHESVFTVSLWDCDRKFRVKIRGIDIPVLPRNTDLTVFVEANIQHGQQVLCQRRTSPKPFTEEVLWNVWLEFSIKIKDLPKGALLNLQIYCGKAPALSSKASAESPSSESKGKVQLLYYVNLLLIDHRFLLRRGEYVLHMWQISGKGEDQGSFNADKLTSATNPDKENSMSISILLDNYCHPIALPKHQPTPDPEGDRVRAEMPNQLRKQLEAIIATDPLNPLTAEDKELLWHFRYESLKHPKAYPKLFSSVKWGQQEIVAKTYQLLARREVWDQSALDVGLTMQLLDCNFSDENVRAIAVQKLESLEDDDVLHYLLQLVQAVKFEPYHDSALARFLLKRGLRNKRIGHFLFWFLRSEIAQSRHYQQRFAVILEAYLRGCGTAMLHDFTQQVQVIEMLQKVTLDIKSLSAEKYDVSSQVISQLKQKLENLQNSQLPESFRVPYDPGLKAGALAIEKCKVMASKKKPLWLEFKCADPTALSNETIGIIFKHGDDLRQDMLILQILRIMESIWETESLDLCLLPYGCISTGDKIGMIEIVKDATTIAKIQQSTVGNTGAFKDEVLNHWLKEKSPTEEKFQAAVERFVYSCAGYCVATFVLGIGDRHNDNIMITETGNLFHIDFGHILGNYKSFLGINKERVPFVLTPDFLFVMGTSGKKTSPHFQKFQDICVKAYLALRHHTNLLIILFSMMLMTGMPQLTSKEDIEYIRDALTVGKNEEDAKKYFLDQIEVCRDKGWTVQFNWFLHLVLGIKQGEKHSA

[2] = biological target: PI3Kδ (p110δ/p85α) Recombinant Human Protein (Homo sapiens (Human), UniProt O00329); assay: PI3Kδ scintillation proximity assay; assay type: biochemical; conditions: 2 μM ATP, 20 μM PIP2
Chain of PI3Kδ (p110δ/p85α) Recombinant Human Protein (O00329 whole entry): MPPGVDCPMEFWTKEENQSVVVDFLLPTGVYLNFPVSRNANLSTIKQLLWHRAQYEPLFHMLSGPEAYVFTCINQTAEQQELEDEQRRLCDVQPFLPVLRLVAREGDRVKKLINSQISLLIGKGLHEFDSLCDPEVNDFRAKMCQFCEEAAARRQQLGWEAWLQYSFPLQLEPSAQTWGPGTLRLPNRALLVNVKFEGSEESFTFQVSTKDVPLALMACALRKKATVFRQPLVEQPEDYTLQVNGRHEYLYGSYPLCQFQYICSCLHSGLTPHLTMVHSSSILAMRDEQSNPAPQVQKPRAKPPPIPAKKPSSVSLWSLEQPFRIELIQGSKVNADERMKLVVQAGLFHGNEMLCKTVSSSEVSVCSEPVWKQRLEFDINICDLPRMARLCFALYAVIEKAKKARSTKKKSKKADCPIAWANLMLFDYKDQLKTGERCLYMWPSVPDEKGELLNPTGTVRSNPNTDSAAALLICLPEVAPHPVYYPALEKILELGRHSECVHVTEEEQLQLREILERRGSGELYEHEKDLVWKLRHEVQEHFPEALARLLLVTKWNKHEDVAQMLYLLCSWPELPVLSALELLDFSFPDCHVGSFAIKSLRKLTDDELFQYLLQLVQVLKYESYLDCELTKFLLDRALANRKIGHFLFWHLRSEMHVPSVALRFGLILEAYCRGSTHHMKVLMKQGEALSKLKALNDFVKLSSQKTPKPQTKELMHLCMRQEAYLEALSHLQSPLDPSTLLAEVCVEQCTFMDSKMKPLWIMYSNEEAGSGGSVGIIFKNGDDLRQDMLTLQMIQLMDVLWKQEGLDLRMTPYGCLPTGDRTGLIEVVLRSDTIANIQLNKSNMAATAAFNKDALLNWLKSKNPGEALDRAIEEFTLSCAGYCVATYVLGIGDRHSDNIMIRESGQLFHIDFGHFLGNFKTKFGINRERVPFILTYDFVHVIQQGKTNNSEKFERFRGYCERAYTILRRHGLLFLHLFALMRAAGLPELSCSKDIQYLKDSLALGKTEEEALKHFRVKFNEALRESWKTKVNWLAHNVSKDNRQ
Chain of PI3Kδ (p110δ/p85α) Recombinant Human Protein (P27986 whole entry partner): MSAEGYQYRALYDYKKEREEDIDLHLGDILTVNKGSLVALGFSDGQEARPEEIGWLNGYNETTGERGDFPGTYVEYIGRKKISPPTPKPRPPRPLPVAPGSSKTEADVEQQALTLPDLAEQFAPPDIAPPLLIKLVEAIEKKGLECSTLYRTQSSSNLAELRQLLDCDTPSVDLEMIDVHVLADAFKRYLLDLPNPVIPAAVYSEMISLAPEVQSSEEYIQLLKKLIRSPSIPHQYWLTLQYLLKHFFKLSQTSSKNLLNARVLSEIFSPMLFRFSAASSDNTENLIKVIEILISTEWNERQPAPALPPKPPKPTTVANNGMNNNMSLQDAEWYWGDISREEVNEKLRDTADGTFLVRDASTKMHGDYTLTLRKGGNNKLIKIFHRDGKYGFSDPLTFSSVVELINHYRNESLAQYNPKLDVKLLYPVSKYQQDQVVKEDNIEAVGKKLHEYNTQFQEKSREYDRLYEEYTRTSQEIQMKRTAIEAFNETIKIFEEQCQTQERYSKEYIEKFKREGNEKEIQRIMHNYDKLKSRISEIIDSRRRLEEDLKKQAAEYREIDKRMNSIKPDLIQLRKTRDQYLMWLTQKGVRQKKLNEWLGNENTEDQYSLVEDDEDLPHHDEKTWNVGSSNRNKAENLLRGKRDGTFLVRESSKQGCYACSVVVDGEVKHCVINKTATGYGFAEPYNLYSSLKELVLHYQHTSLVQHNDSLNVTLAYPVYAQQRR

[3] = tested on: Phosphorylated Ribosomal Protein S6 (RPS6) in THP-1 cells; assay: THP-1 RPS6 ELISA assay; assay type: cell-based, human; conditions: 10 nM MCP-1, read-out: PI3Kγ_THP1_RPS6_ELISA IC50
[4] = Homo sapiens, THP-1, THP-1 cells

Compound: CC(NC(=O)c1c(N)nn2cccnc12)c1cc(Cl)c2c(C#N)cnn2c1N1CCC[C@H](O)C1 (stereo partly drawn) [Example 61, 2-Amino-N-(1-(4-chloro-3-cyano-7-((S)-3-hydroxypiperidin-1-yl)pyrazolo[1,5-a]pyridin-6-yl)ethyl)pyrazolo[1,5-a]pyrimidine-3-carboxamide trifluoroacetate]
pIC50 [1]: > 7.00
pIC50 [2]: > 5.70
pIC50 [3, 4]: > 6.00

Compound: CC(NC(=O)c1c(N)nn2cccnc12)c1cc(Cl)c2cncn2c1N1CCS(=N)(=O)CC1 (stereo not drawn) [Example 39, 2-Amino-N-(1-[8-chloro-5-(1-imino-1-oxidothiomorpholin-4-yl)imidazo[1,5-a]pyridin-6-yl]ethyl)pyrazolo[1,5-a]pyrimidine-3-carboxamide]
pIC50 [1]: > 7.00
pIC50 [2]: > 7.00
pIC50 [3, 4]: > 6.30

Compound: CC(NC(=O)c1c(N)nn2cccnc12)c1cc(Cl)c2cncn2c1N1CCC(C)(C)C1 (stereo not drawn) [Example 74, 2-Amino-N-{1-[8-chloro-5-(3,3-dimethylpyrrolidin-1-yl)imidazo[1,5-a]pyridin-6-yl]ethyl}pyrazolo[1,5-a]pyrimidine-3-carboxamide bistrifluoroacetate]
pIC50 [1]: > 7.00
pIC50 [2]: > 7.00
pIC50 [3, 4]: > 6.30

Compound: CC(NC(=O)c1c(N)nn2cccnc12)c1cc(Cl)c2cncn2c1N1C[C@H](O)C[C@H](C#N)C1 (stereo partly drawn) [Example 157, 2-Amino-N-(1-{8-chloro-5-[(3S,5R)-3-cyano-5-hydroxypiperidin-1-yl]imidazo[1,5-a]pyridin-6-yl}ethyl)pyrazolo[1,5-a]pyrimidine-3-carboxamide trifluoroacetate salt]
pIC50 [1]: > 7.00
pIC50 [2]: > 6.30
pIC50 [3, 4]: > 6.00

Compound: COCCOc1c(C(C)NC(=O)c2c(N)nn3cccnc23)cc(Cl)c2cn[nH]c12 (stereo not drawn) [Example 81, 2-Amino-N-(1-(4-chloro-7-(2-methoxyethoxy)-1H-indazol-6-yl)ethyl)pyrazolo[1,5-a]pyrimidine-3-carboxamide trifluoroacetate]
pIC50 [1]: > 7.00
pIC50 [2]: > 7.00
pIC50 [3, 4]: > 6.30

Compound: Cc1nc(Cl)c2c(Cl)cc(C(C)NC(=O)c3c(N)nn4cccnc34)c(-c3cn[nH]c3)n12 (racemic) [Example 122, 2-Amino-N-{1-[1,8-dichloro-3-methyl-5-(1H-pyrazol-4-yl)imidazo[1,5-a]pyridin-6-yl]ethyl}pyrazolo[1,5-a]pyrimidine-3-carboxamide trifluoroacetate salt]
pIC50 [1]: > 7.00
pIC50 [2]: > 7.00
pIC50 [3, 4]: > 6.30

Compound: CC(NC(=O)c1c(N)nn2cccnc12)c1cc(Cl)c2c(C#N)n[nH]c2c1-c1ccccc1 (stereo not drawn) [Example 55, 2-Amino-N-(1-(4-chloro-3-cyano-7-phenyl-1H-indazol-6-yl)ethyl)pyrazolo[1,5-a]pyrimidine-3-carboxamide trifluoroacetate]
pIC50 [1]: > 7.00
pIC50 [2]: > 5.70
pIC50 [3, 4]: < 6.00

Compound: CCOc1c(C(C)NC(=O)c2c(N)nn3cccnc23)cc(Cl)c2c(Br)n[nH]c12 (stereo not drawn) [Example 52, 2-Amino-N-(1-(3-bromo-4-chloro-7-ethoxy-1H-indazol-6-yl)ethyl)pyrazolo[1,5-a]pyrimidine-3-carboxamide trifluoroacetate]
pIC50 [1]: > 7.00
pIC50 [2]: > 6.30
pIC50 [3, 4]: > 6.30

Compound: CC1CN(c2c(C(NC(=O)c3c(N)nn4cccnc34)C3CC3)cc(Cl)c3c(C#N)ncn23)CCS1(=O)=O (stereo not drawn) [Example 176, 2-Amino-N-((8-chloro-1-cyano-5-(2-methyl-1,1-dioxidothio-morpholino)imidazo [1,5-a]pyridin-6-yl)(cyclopropyl)methyl)pyrazolo [1,5-a]pyrimidine-3-carboxamide trifluoroacetate salt]
pIC50 [1]: > 7.00
pIC50 [2]: > 5.70
pIC50 [3, 4]: > 6.30

Compound: CC(NC(=O)c1c(N)nn2cccnc12)c1cc(Cl)c2c(Cl)cnn2c1N1CCNS(=O)(=O)CC1 (stereo not drawn) [Example 115, 2-Amino-N-{1-[3,4-dichloro-7-(1,1-dioxido-1,2,5-thiadiazepan-5-yl)pyrazolo[1,5-a]pyridin-6-yl]ethyl}pyrazolo[1,5-a]pyrimidine-3-carboxamide trifluoroacetate]
pIC50 [1]: > 7.00
pIC50 [2]: > 7.00
pIC50 [3, 4]: > 6.30

Compound: CC(NC(=O)c1c(N)nn2cccnc12)c1cc(Cl)c2cncn2c1N1CCCC(O)(C(F)(F)F)C1 (single isomer, unassigned) [Example 78B, 2-Amino-N-(1-{8-chloro-5-[3-hydroxy-3-(trifluoromethyl)piperidin-1-yl]imidazo[1,5-a]pyridin-6-yl}ethyl)pyrazolo[1,5-a]pyrimidine-3-carboxamide trifluoroacetate]
pIC50 [1]: > 7.00
pIC50 [2]: > 7.00
pIC50 ([3]; THP-1 cells): > 6.30

Compound: Nc1nn2cccnc2c1C(=O)NC(c1cc(Cl)c2cncn2c1N1CCS(=O)(=O)CC1)C1CC1 (racemic) [Example 182, 2-Amino-N-((8-chloro-5-(1,1-dioxidothio-morpholino)imidazo [1,5-a]pyridin-6-yl)(cyclopropyl)methyl)pyrazolo [1,5-a] pyrimidine-3-carboxamide trifluoroacetate salt]
pIC50 [1]: > 7.00
pIC50 [2]: > 7.00
pIC50 [3, 4]: > 6.30

Compound: CCOc1c(C(C)NC(=O)c2c(N)nc3ccc(-c4cncc(CO)c4)nn23)cc(Cl)c2c(Cl)n[nH]c12 (stereo not drawn) [Example 49, 2-Amino-N-(1-(3,4-dichloro-7-ethoxy-1H-indazol-6-yl)ethyl)-6-(5-(hydroxymethyl)pyridin-3-yl)imidazo[1,2-b]pyridazine-3-carboxamide]
pIC50 [1]: > 7.00
pIC50 [2]: > 7.00
pIC50 [3, 4]: > 6.30

Compound: CC(NC(=O)c1c(N)nn2cccnc12)c1cc(Cl)c2cncn2c1N1CCCC[C@H]1C (stereo partly drawn) [Example 72A, 2-Amino-N-{1-[8-chloro-5-[(2R)-2-methylpiperidin-1-yl)imidazo[1,5-a]pyridin-6-yl]ethyl}pyrazolo[1,5-a]pyrimidine-3-carboxamide bistrifluoroacetate]
pIC50 [1]: > 7.00
pIC50 [2]: > 7.00
pIC50 [3, 4]: > 6.30

Compound: Nc1nn2cccnc2c1C(=O)NC(c1cc(Cl)c2cncn2c1N1CCS(=O)(=O)CC1)C(F)(F)F (racemic) [Example 180, 2-Amino-N-{1-[8-chloro-5-(1,1-dioxidothiomorpholin-4-yl)imidazo[1,5-a]pyridin-6-yl]-2,2,2-trifluoroethyl}pyrazolo[1,5-a]pyrimidine-3-carboxamide trifluoroacetate salt]
pIC50 [1]: > 7.00
pIC50 [2]: > 7.00
pIC50 [3, 4]: > 6.30

Compound: CC(NC(=O)c1c(N)nn2cccnc12)c1cc(Cl)c2cncn2c1N1CCCS(=O)(=O)CC1 (racemic) [Example 151, 2-Amino-N-{1-[8-chloro-5-(1,1-dioxido-1,4-thiazepan-4-yl)imidazo[1,5-a]pyridin-6-yl]ethyl}pyrazolo[1,5-a]pyrimidine-3-carboxamide trifluoroacetate salt]
pIC50 [1]: > 7.00
pIC50 [2]: > 7.00
pIC50 [3, 4]: > 6.30

The next lines start with the values.

pIC50 [1]: > 7.00
pIC50 [2]: > 7.00
pIC50 [3, 4]: > 6.30
Compound: CC(NC(=O)c1c(N)nn2cccnc12)c1cc(Cl)c2cn[nH]c2c1N1CCC[C@H](NS(C)(=O)=O)C1 (stereo partly drawn) [Example 105, 2-Amino-N-[1-(4-chloro-7-{(3S)-3-[(methylsulfonyl)amino]piperidin-1-yl}-2H-indazol-6-yl)ethyl]pyrazolo[1,5-a]pyrimidine-3-carboxamide trifluoroacetate]

pIC50 [1]: > 7.00
pIC50 [2]: > 6.30
pIC50 [3, 4]: > 6.00
Compound: CNC(=O)C1CCN(c2c(C(C)NC(=O)c3c(N)nn4cccnc34)cc(Cl)c3cn[nH]c23)C1 (single isomer, unassigned) [Example 103A, 2-Amino-N-[1-(4-chloro-7-{3-[(methylamino)carbonyl]pyrrolidin-1-yl}-2H-indazol-6-yl)ethyl]pyrazolo[1,5-a]pyrimidine-3-carboxamide trifluoroacetate]

pIC50 [1]: > 7.00
pIC50 [2]: > 5.70
pIC50 ([3]; THP-1 cells): < 6.00
Compound: CC1(C)CN(c2c(CNC(=O)c3c(N)nn4cccnc34)cc(Cl)c3c(Cl)ncn23)CCS1(=O)=O [Example 170, 2-Amino-N-((1,8-dichloro-5-(2,2-dimethyl-1,1-dioxidothio-morpholino)imidazo [1,5-a]pyridin-6-yl)methyl) pyrazolo[1,5-a] pyrimidine-3-carboxamide trifluoroacetate salt]

pIC50 [1]: > 7.00
pIC50 [2]: > 6.30
pIC50 [3, 4]: > 6.30
Compound: CC1CN(c2c(CNC(=O)c3c(N)nn4cccnc34)cc(Cl)c3cncn23)CCS1(=O)=O (racemic) [Example 167, 2-Amino-N-((8-chloro-5-(2-methyl-1,1-dioxidothiomorpholino)imidazo[1,5-a]pyridin-6-yl)methyl)pyrazolo[1,5-a]pyrimidine-3-carboxamide trifluoroacetate salt]

pIC50 [1]: > 7.00
pIC50 [2]: > 7.00
pIC50 [3, 4]: > 6.30
Compound: CC(NC(=O)c1c(N)nn2cccnc12)c1cc(Cl)c2ccnn2c1-c1cccnc1 (stereo not drawn) [Example 59, 2-Amino-N-(1-(4-chloro-7-(pyridin-3-yl)pyrazolo[1,5-a]pyridin-6-yl)ethyl)pyrazolo[1,5-a]pyrimidine-3-carboxamide trifluoroacetate]

pIC50 [1]: > 7.00
pIC50 [2]: > 6.30
pIC50 [3, 4]: > 6.30
Compound: CC(NC(=O)c1c(N)nn2cccnc12)c1cc(Cl)c2cncn2c1N1CCC2(CC1)CNC(=O)O2 (stereo not drawn) [Example 80, 2-Amino-N-{1-[8-chloro-5-(2-oxo-1-oxa-3,8-diazaspiro[4.5]dec-8-yl)imidazo[1,5-a]pyridin-6-yl]ethyl}pyrazolo[1,5-a]pyrimidine-3-carboxamide trifluoroacetate]

pIC50 [1]: > 7.00
pIC50 [2]: > 7.00
pIC50 [3, 4]: > 6.30
Compound: CC(NC(=O)c1c(N)nn2cccnc12)c1cc(Cl)c2cncn2c1N1CCC(C)(C#N)CC1 (stereo not drawn) [Example 88, 2-Amino-N-(1-(8-chloro-5-(4-cyano-4-methylpiperidin-1-yl)imidazo[1,5-a]pyridin-6-yl)ethyl)pyrazolo[1,5-a]pyrimidine-3-carboxamide trifluoroacetate]
